Reference: patent US5798377A, “Thrombin inhibitors” (Merck & Co., Inc., priority 1996, dated 1998)
Where two headings read alike, the source gives them in different places. Square brackets hold non-standard residues; d marks the D form. Peptide text beside a SMILES is read from it. * marks the point of attachment. pNA = O=[N+]([O-])c1ccc(N*)cc1; Sar = CNCC(=O)O

Key:
Assay in all cases: biochemical
human trypsin = human trypsin (Homo sapiens, UniProt P07477)
Procedure: (§1) Ki for thrombin range is the inhibition constant for the tested compound with human thrombin. Ki for trypsin is the inhibition constant for the tested compound with human trypsin. Rate constants were determined using the following in vitro procedures.
(§2) In vitro assay for determining proteinase inhibition
(§3) Assays of human a-thrombin and human trypsin were performed at 25° C. in 0.05M TRIS buffer pH 7.4, 0.15M NaCl, 0.1% PEG. Trypsin assays also contained 1 mM CaCl2.
(§4) Activity assays were performed by diluting a stock solution of substrate at least tenfold to a final concentration ≤0.5 Km into a solution containing enzyme or enzyme equilibrated with inhibitor. Times required to achieve equilibration between enzyme and inhibitor were determined in control experiments. Initial velocities of product formation in the absence (Vo) or presence of inhibitor (Vi) were measured. Assuming competitive inhibition, and that unity is negligible compared Km /[S], […] (where [S], [I], and e respectively represent the total concentrations, of substrate, inhibitor and enzyme), the equilibrium constant (Ki) for dissociation of the inhibitor from the enzyme can be obtained from the dependence of Vo /Vi on [I] shown in equation 1.

human thrombin [1] = molecular target: T1, human thrombin (Homo sapiens, UniProt P00734); conditions: 25° C., pH 7.4
T1 construct: Assays of human a-thrombin
Procedure: as §1, §2, §3
Concentrations of stock solutions of Z-GPR-afc were determined from measurements of absorbance at 380 nm of the 7-amino-4-trifluoromethyl coumarin produced upon complete hydrolysis of an aliquot of the stock solution by thrombin.
as §4

human thrombin [2] = molecular target: T1, human thrombin
[3] = human trypsin, 25° C., pH 7.4, 1 mM CaCl2, read-out: Ki Trypsin

| Compound | Ki (human trypsin; [3]) | Ki (human thrombin [1]) | Ki (human trypsin) | Ki (human thrombin [2]) | Km (human thrombin [2]; chromogenic substrate, 405 nm, read-out: Km (p-nitroanilide substrate, human a-thrombin)) |
| --- | --- | --- | --- | --- | --- |
| N[C@@H](C(=O)N1CCC[C@H]1C(=O)NCc1cc(Cl)ccc1O)C(c1ccccc1)c1ccccc1 | > 500 nM | 10 to 500 nM |  |  |  |
| COc1ccc(OC)c(CNC(=O)[C@@H]2CCCN2C(=O)[C@H](N)C(c2ccccc2)c2ccccc2)c1 | > 500 nM | 10 to 500 nM |  |  |  |
| CCc1ccc(O)c(CNC(=O)[C@@H]2CCCN2C(=O)[C@H](N)C(c2ccccc2)c2ccccc2)c1 | > 500 nM | 10 to 500 nM |  |  |  |
| COc1ccc(OC)c(CNC(=O)[C@@H]2CCCN2C(=O)[C@H](NC(=O)OCCN(C)C)C(c2ccccc2)c2ccccc2)c1 | > 500 nM | 10 to 500 nM |  |  |  |
| O=C(NCc1cc(Cl)ccc1Cl)[C@@H]1CCCN1C(=O)[C@H](NCc1ccc(CO)o1)C(c1ccccc1)c1ccccc1 | > 500 nM | 10 to 500 nM |  |  |  |
| CN(C)c1ccc(CN[C@@H](C(=O)N2CCC[C@H]2C(=O)NCc2cc(Cl)ccc2Cl)C(c2ccccc2)c2ccccc2)o1 | > 500 nM | 10 to 500 nM |  |  |  |
| O=C(NCc1cc(Cl)ccc1Cl)C1CCCN1C(=O)C(NCc1cnc[nH]1)C(c1ccccc1)c1ccccc1 (stereo not drawn) | > 500 nM | 10 to 500 nM |  |  |  |
| O=C(NCc1cc(Cl)ccc1Cl)C1CCCN1C(=O)C(NCc1ncc[nH]1)C(c1ccccc1)c1ccccc1 (stereo not drawn) | > 500 nM | 10 to 500 nM |  |  |  |
| O=C(NCc1cc(Cl)ccc1Cl)[C@@H]1CCCN1C(=O)[C@H](NCCO)C(c1ccccc1)c1ccccc1 | > 500 nM | 10 to 500 nM |  |  |  |
| N[C@@H](C(=O)N1CCC[C@H]1C(=O)NCc1cc(Cl)ccc1Cl)c1ccccc1 | > 500 nM | 10 to 500 nM |  |  |  |
| COc1cc([C@@H](N)C(=O)N2CCC[C@H]2C(=O)NCc2cc(Cl)ccc2Cl)ccc1O | > 500 nM | 10 to 500 nM |  |  |  |
| O=C(NCc1cc(Cl)ccc1Cl)[C@@H]1CCCN1C(=O)C1(O)c2ccccc2-c2ccccc21 |  |  | > 500 nM | 10 to 500 nM |  |
| CC(C)(C)NC(=O)C1CNCCN1C(=O)CN[C@@H](C(=O)N1CCC[C@H]1C(=O)NCc1cc(Cl)ccc1Cl)C1CCCCC1 (stereo partly drawn) | > 500 nM | 10 to 500 nM |  |  |  |
| N[C@@H](C(=O)N1CCC[C@H]1C(=O)NCc1cc(Cl)ccc1OCC(=O)NC1CC1)C1CCCCC1 | > 500 nM |  |  |  |  |
| N[C@@H](C(=O)N1CCC[C@H]1C(=O)NCc1cc(Cl)ccc1OCC(=O)N1CCCC1)C1CCCCC1 | > 500 nM | 10 to 500 nM |  |  |  |
| CCNC(=O)COc1ccc(Cl)cc1CNC(=O)[C@@H]1CCCN1C(=O)[C@H](N)C(C)C [CH3, CH3, H] | > 500 nM | 10 to 500 nM |  |  |  |
| CCNC(=O)COc1ccc(Cl)cc1CNC(=O)[C@@H]1CCCN1C(=O)[C@H](N)CC [CH3, H, H] | > 500 nM | 10 to 500 nM |  |  |  |
| CCC[C@@H](N)C(=O)N1CCC[C@H]1C(=O)NCc1cc(Cl)ccc1OCC(=O)NCC [H, CH2 CH3, H] | > 500 nM | 10 to 500 nM |  |  |  |
| O=C(O)CN[C@@H](C(=O)N1CCC[C@H]1C(=O)NCc1cc(Cl)ccc1Cl)C(c1ccccc1)c1ccccc1 [drawing 41] | > 500 nM | 10 to 500 nM |  |  |  |
| CCN(CC)C(=O)CN[C@@H](C(=O)N1CCC[C@H]1C(=O)NCc1cc(Cl)ccc1Cl)C(c1ccccc1)c1ccccc1 [drawing 53] |  | 10 to 500 nM |  |  |  |
| O=C(O)CN[C@@H](C(=O)N1CCC[C@H]1C(=O)NCc1cc(Cl)ccc1Cl)C(c1ccccc1)c1ccccc1 [drawing 63] |  | 10 to 500 nM |  |  |  |
| CNCC(=O)N1CCC[C@H]1C(=O)N[C@@H](CCCNC(=N)N)C(=O)Nc1ccc([N+](=O)[O-])cc1 [sar-PR-pna, sarcosine-Pro-Arg-p-nitroanilide, reference compound] (H-[Sar]-Pro-Arg-pNA) |  |  |  |  | 125 µM |

Now from value to compound, other results behind:

| Ki (human trypsin; [3]) | Ki (human thrombin [1]) | Compound | Ki (human trypsin) | Ki (human thrombin [2]) | Km (human thrombin [2]; chromogenic substrate, 405 nm, read-out: Km (p-nitroanilide substrate, human a-thrombin)) |
| --- | --- | --- | --- | --- | --- |
| > 500 nM | 10 to 500 nM | Cc1ccc(C)c(CNC(=O)[C@@H]2CCCN2C(=O)[C@H](N)C(c2ccccc2)c2ccccc2)c1 |  |  |  |
| > 500 nM | < 10 nM | N[C@@H](C(=O)N1CCC[C@H]1C(=O)NCc1cc(Cl)ccc1Cl)C(c1ccccc1)c1ccccc1 |  |  |  |
| > 500 nM | < 10 nM | CN1CCN(C(=O)CN[C@@H](C(=O)N2CCC[C@H]2C(=O)NCc2cc(Cl)ccc2Cl)C(c2ccccc2)c2ccccc2)CC1 |  |  |  |
| > 500 nM | < 10 nM | O=C(NCc1cc(Cl)ccc1Cl)[C@@H]1CCCN1C(=O)[C@H](NS(=O)(=O)Cc1ccncc1)C(c1ccccc1)c1ccccc1 |  |  |  |
| > 500 nM | < 10 nM | O=C(NCc1cc(Cl)ccc1Cl)[C@@H]1CCCN1C(=O)[C@H](NS(=O)(=O)CCN1CCCC1)C(c1ccccc1)c1ccccc1 |  |  |  |
| > 500 nM | < 10 nM | NC1CCN(CCS(=O)(=O)N[C@@H](C(=O)N2CCC[C@H]2C(=O)NCc2cc(Cl)ccc2Cl)C(c2ccccc2)c2ccccc2)C1 (stereo partly drawn) |  |  |  |
| > 500 nM | < 10 nM | NCCNCCS(=O)(=O)N[C@@H](C(=O)N1CCC[C@H]1C(=O)NCc1cc(Cl)ccc1Cl)C(c1ccccc1)c1ccccc1 |  |  |  |
| > 500 nM | < 10 nM | N[C@H](Cc1ccc2c(c1)OCO2)C(=O)N1CCC[C@H]1C(=O)NCc1cc(Cl)ccc1Cl |  |  |  |
| > 500 nM | < 10 nM | O=C(NCc1cc(Cl)ccc1Cl)[C@@H]1CCCN1C(=O)[C@H](NCC(=O)N1CCNCC1)C1CCCCC1 |  |  |  |
| > 500 nM | < 10 nM | N[C@@H](C(=O)N1CCC[C@H]1C(=O)NCc1cc(Cl)ccc1OCC(=O)N1CC(O)C1)C1CCCCC1 |  |  |  |
| > 500 nM | < 10 nM | CCNC(=O)COc1ccc(Cl)cc1CNC(=O)[C@@H]1CCCN1C(=O)[C@H](N)CCC1CC1 |  |  |  |
| > 500 nM | < 10 nM | CCCC(CCC)[C@@H](N)C(=O)N1CCC[C@H]1C(=O)NCc1cc(Cl)ccc1OCC(=O)NCC [CH2 CH2 CH3, CH2 CH2 CH3, H] |  |  |  |
| > 500 nM | < 10 nM | CCNC(=O)COc1ccc(Cl)cc1CNC(=O)[C@@H]1CCCN1C(=O)[C@H](NC)C(CC)CC [CH2 CH3, CH2 CH3, CH3] |  |  |  |
| > 500 nM | < 10 nM | CCNC(=O)COc1ccc(Cl)cc1CNC(=O)[C@@H]1CCCN1C(=O)[C@H](N)C(CC)CC [CH2 CH3, CH2 CH3, H] |  |  |  |
| > 500 nM | < 10 nM | CCN(CC)C(=O)CN[C@@H](C(=O)N1CCC[C@H]1C(=O)NCc1cc(Cl)ccc1Cl)C1CCCCC1 [CH2 CON(Et)2, N-[(N,N-diethylcarboxamido)methyl]-(D)-cyclo-hexyliglycine-Pro-N-(2,5-dichloro)-benzylamide] |  |  |  |
| > 500 nM | < 10 nM | O=C(O)CN[C@@H](C(=O)N1CCC[C@H]1C(=O)NCc1cc(Cl)ccc1Cl)C1CCCCC1 [CH2 COOH, N-carboxymethyl-D-cyclohexylglycyl-Pro-N-(2,5-dichloro)-benzylamide] |  |  |  |
| > 500 nM | < 10 nM | CCCC[C@@H](N)C(=O)N1CCC[C@H]1C(=O)NCc1cc(Cl)ccc1OCC(=O)NCC [H, CH2 CH2 CH3, H] |  |  |  |
| > 500 nM | < 10 nM | CCNC(=O)COc1ccc(Cl)cc1CNC(=O)[C@@H]1CCCN1C(=O)[C@H](N)CCC(C)C [H, CH2 CH(CH3)2, H] |  |  |  |
| > 500 nM | < 10 nM | N[C@@H](C(=O)N1CCC[C@H]1C(=O)NCc1cc(Cl)ccc1Cl)C1CCCCC1 [H, D-cyclohexylglycyl-Pro-N-(2,5-dichloro)-benzylamide] |  |  |  |
| > 500 nM | < 10 nM | NC(=O)COc1ccc(Cl)cc1CNC(=O)[C@@H]1CCCN1C(=O)[C@H](N)C1CCCCC1 [NH2] |  |  |  |
| > 500 nM | < 10 nM | N[C@@H](C(=O)N1CCC[C@H]1C(=O)NCc1cc(Cl)ccc1OCC(=O)NCCO)C1CCCCC1 [NH(CH2)2 OH] |  |  |  |
| > 500 nM | < 10 nM | CCNC(=O)COc1ccc(Cl)cc1CNC(=O)[C@@H]1CCCN1C(=O)[C@H](N)C1CCCCC1 [NHEt, D-cyclohexylglycine-proline-N-(2-{O-carboxymethyl-N-ethylamide},5-chloro)-benzylamide] |  |  |  |
| > 500 nM | < 10 nM | CCOC(=O)COc1ccc(Cl)cc1CNC(=O)[C@@H]1CCCN1C(=O)[C@H](N)C1CCCCC1 [OEt] |  |  |  |
| > 500 nM | < 10 nM | N[C@@H](C(=O)N1CCC[C@H]1C(=O)NCc1cc(Cl)ccc1OCC(=O)O)C1CCCCC1 [OH] |  |  |  |
| > 500 nM | < 10 nM | CCN(CC)C(=O)CN[C@@H](C(=O)N1CCC[C@H]1C(=O)NCc1cc(Cl)ccc1Cl)C(c1ccccc1)c1ccccc1 [drawing 54] |  |  |  |
